Reference: patent US20240238383A1, “ANTI-OXIDANT CONTAINING PARTICLES AND METHODS OF USE” (University of lowa Research Foundation, priority 2021, published 2024)
“Also recorded” adds a separate entry of the source.

Experiments:
B4G12 CECs = assay: RSL3/erastin-induced ferroptosis / cell death assay, cell viability by MTS, B4G12 CECs; type: cell-based, human
Method: (§1) FIGS. 4A-4C. FECD CECs are more susceptible to ferroptosis than B4G12 control CECs. (A) Basal lipid peroxidation, as measured by C11 BODIPY, is 57% higher in cultured FECD CECs (N=3) than B4G12 cells (N=3). […] Cultured FECD CECs (N=6) also have 4.7-fold more TFR1 mRNA than B4G12 CECs (N=9), normalized to 18S. (C) Cultured FECD CECs (N=3) and B4G12 cells (N=3) were treated with 1 μM RSL3 to induce cell death via Fe-dependent ferroptosis. The cells were also treated with 100 μM of a Fe chelator, deferoxamine (DFO). Cell viability was measured using MTS assays over 8 hours.
FIGS. 8A-8B. Nanoparticle targeting and efficacy. […] FITC-anti-αvβ3 labeled cells were detected and counted by flow cytometry and compared to a FITC-IgG control as well as unlabeled cells. […] After incubating another 24 hours (68 hours total), cell viability in each culture was quantified using MTS assays. […]
(§2) Basal levels of lipid peroxidation and cytosolic Fe are higher in human FECD CECs than control CECs. […] One experiment assessed lipid peroxidation directly. Cultured FECD CECs and control CECs (B4G12 cells) were labeled with BODIPY and intensity was measured using flow cytometry. […] To determine whether Fe trafficking is affected in the context of FECD, TFR1 was quantified, which has been identified as an indicator of ferroptosis (Stockwell et al., 2017; Feng et al., 2020). […]

cultured FECD CECs = assay: RSL3/erastin-induced ferroptosis assay, cell viability by MTS, cultured FECD CECs; type: cell-based, human
Method: as §1
FIGS. 5A-5B. FECD-associated ferroptosis is prevented by ubiquinol nanoparticles (NPs) and SOD2 supplementation. […] After incubating another 24 hours (68 hours total), cell viability in each culture was quantified using MTS assays.
as §2

[1] = Optisol-GS at 4° C. over 4 days
Method: Samples of Optisol-GS are collected daily. Concentrations (μg drug/total protein) of ubiquinol and its oxidized form ubiquinone are measured using HPLC. Coenzyme Q9 (CoQ9) is the internal standard.

[2] = cited from earlier work
[3] = system: ex vivo human donor CEC tissues; assay: Mitochondrial respiration stress testing (extracellular flux analysis of O2 consumption, Seahorse) of donor CEC tissues stored in Optisol-GS; type: cell-based
Method: FIGS. 3A-3B. Ubiquinol increases mitochondrial function under oxidative stress. (A) Ex vivo human donor CECs stored in corneal storage media (Optisol-GS, Bausch+Lomb) are exposed to 3-fold greater O2 levels than in vivo CECs. Extracellular flux analysis of O2 consumption was performed in transplant-suitable ex vivo human donor CEC tissues stored for 12 days (average) in media supplemented with 10 μM free ubiquinol (dissolved in ethanol at 37° C.) for the last 5 days of storage (N=13) compared to same-donor controls (N=13). […] (B) The presence of αvβ3 on B4G12 CECs (N=3) was confirmed, indicating cRGD NPs will be a suitable delivery system for getting ubiquinol into CECs. FITC-anti-αvβ3 labeled cells were detected and counted by flow cytometry and compared to a FITC-IgG control as well as unlabeled cells. Dashed lines=injections of oligomycin (0), carbonyl cyanide-p-trifluoromethoxy-phenyl-hydrazone (F), antimycin A/rotenone (R/A). Error bars=SEM. ****P<0.0001. SRC, spare respiratory capacity.
Supplementing Optisol-GS with free ubiquinol increases mitochondrial function in donor CECs. Mitochondrial respiration stress testing (extracellular flux analysis of O2 consumption, Seahorse XFe24, Agilent) was performed in transplant-suitable ex vivo human donor CEC tissues stored for 12 days (average) in media supplemented with 10 μm free ubiquinol (dissolved in ethanol at 37 °C) for the last 5 days of storage compared to same-donor ethanol-only controls (N=13 each) (Greiner et al., 2015). […] Although free ubiquinol improved CEC mitochondrial function, ethanol and heat were required to bring it into solution and it was impractical to handle in standard industry conditions. Therefore, ubiquinol can be used to rescue mitochondrial function from storage-related oxidative stress but needs increased delivery. Given the positive impact of ubiquinol treatment on CECs stored at the end of conventional storage (12-14 days), increasing ubiquinol delivery may permit testing for benefit at extended PT (21 days, a 50% increase in PT).

Col8a2^L450W mice = settings: 7 mg/ml in water vs water alone; cited from earlier work
[4] = 10 μM free ubiquinol for last 5 days of 12 days (average) storage, vs same-donor controls, N=13

Compound: COC(=O)c1ccc([C@@H]2c3[nH]c4ccccc4c3C[C@@H](C(=O)OC)N2C(=O)CCl)cc1 [RSL3]
- sensitivity of cells to induced ferroptosis (B4G12 CECs): sensitive
- sensitivity of cells to induced ferroptosis (cultured FECD CECs; cultured FECD CECs): sensitive

Compound: COc1c(O)c(C)c(C/C=C(\C)CC/C=C(\C)CC/C=C(\C)CC/C=C(\C)CC/C=C(\C)CC/C=C(\C)CC/C=C(\C)CC/C=C(\C)CC/C=C(\C)CCC=C(C)C)c(O)c1OC [free ubiquinol, ubiquinol]
- ubiquinol remaining [1]: 69.3%
- solubility in water / aqueous media [2]: practically insoluble in water; also recorded: poorly soluble in aqueous media
- prevention of ferroptosis (cell viability, MTS) (cultured FECD CECs; antioxidant at 20 h, 1 μM RSL3 after 24 h, read after another 24 h): little efficacy
- increase in maximal respiration [3, 4]: 93%
- increase in spare respiratory capacity [3, 4]: 174%
- mitochondrial respiration / mitochondrial function ([3]; free ubiquinol in corneal storage media vs controls): enhance mitochondrial function; also recorded: increased mitochondrial respiration compared to controls; also recorded: significantly increased mitochondrial respiration and spare respiratory capacity versus controls

Compound: CC(=O)N[C@@H](CS)C(=O)O [NAC, N-Acetyl-L-cysteine]
- CEC death associated with ER stress and oxidative stress (Col8a2^L450W mice): prevented CEC death
- clinical markers of CEC health (Col8a2^L450W mice): increase clinical markers of CEC health
